Laboratory results as given in patent US8071612B2, “6-alkenyl and 6-phenylalkyl substituted 2-quinolinones and 2-quinoxalinones as poly(ADP-ribose) polymerase inhibitors” (Janssen Pharmaceutica, NV, priority 2004, dated 2011).

Tests used:
PARP-1 enzyme [1] = target: T1, PARP-1 enzyme (Homo sapiens, UniProt P09874); assay: In vitro filtration assay for PARP-1 inhibitory activity; format: biochemical; settings: nicked DNA activated PARP-1, [32P]-NAD, histones; read-out: In vitro filtration assay pIC50 (converted)
T1 construct: made in house
Protocol: Compounds of the present invention were tested in an in vitro filtration assay assessing PARP-1 activity (triggered in the presence of nicked DNA) by means of its histone poly (ADP-ribosyl)ation activity using [^32P]-NAD as ADP-ribosyl donor. The radioactive ribosylated histones were precipitated by trichloroacetic acid (TCA) in 96-well filterplates and the incorporated [^32P] measured using a scintillation counter
A mixture of histones (stock solution: 5 mg/ml in H2O), NAD (stock solution: 100 mM in H2O), and [^32P]-NAD^+ in incubation buffer (50 mM Tris/HCl, pH 8; 0.2 mM DTT; 4 mM MgCl2) was made. A mixture of the PARP-1 enzyme (5-10 μg/ml) and nicked DNA was also made. The nicked DNA was prepared as described in the in vitro SPA for PARP-1 inhibitory activity. Seventy-five μl of the PARP-1 enzyme/DNA mixture together with 1 μl of compound in DMSO and 25 μl of histones-NAD^+/[^32P]-NAD^+ mixture was added per well of a 96-well filterplate (0.45 μm, supplier Millipore). The final concentrations in the incubation mixture were 2 μg/ml for the histones, 0.1 mM for the NAD^+, […] (0.5 μC) for the [^32P]-NAD^+ and 2 μg/ml for the nicked DNA. Plates were incubated for 15 min. at room temperature and the reaction was terminated by the addition of 10 μl ice cold 100% TCA followed by the addition of 10 μl ice-cold BSA solution (1% in H2O). The protein fraction was allowed to precipitate for 10 min. at 4° C. and plates were vacuum filtered. The plates were subsequently washed with, for each well, 1 ml of 10% ice cold TCA, 1 ml of 5% ice cold TCA and 1 ml of 5% TCA at room temperature. Finally 100 μl of scintillation solution (Microscint 40, Packard) was added to each well and the plates were transferred to a TopCountNXT™ (supplier: Packard) for scintillation counting and values were expressed as counts per minute (cpm). For each experiment, controls (containing PARP-1 enzyme and DMSO without compound), a blank incubation (containing DMSO but no PARP-1 enzyme or compound) and samples (containing PARP-1 enzyme and compound dissolved in DMSO) were run in parallel. All compounds tested were dissolved and eventually further diluted in DMSO. In first instance, compounds were tested at a concentration of 10^−5M. […] In each test, the blank value was subtracted from both the control and the sample values. The control sample represented maximal PARP-1 enzyme activity. For each sample, the amount of cpm was expressed as a percentage of the mean cpm value of the controls. When appropriate, IC50-values (concentration of the drug, needed to reduce the PARP-1 enzyme activity to 50% of the control) were computed using linear interpolation between the experimental points just above and below the 50% level. Herein the effects of test compounds are expressed as pIC50 (the negative log value of the IC50-value). As a reference compound, 4-amino-1,8-naphthalimide was included to validate the filtration assay.

PARP-1 enzyme [2] = target: T1, PARP-1 enzyme; assay: In vitro Scintillation Proximity Assay (SPA) for PARP-1 inhibitory activity; format: biochemical; settings: nicked DNA activated PARP-1, [3H]-NAD+, biotinylated histones; read-out: In vitro SPA pIC50 (converted)
Protocol: Compounds of the present invention were tested in an in vitro assay based on SPA technology (proprietary to Amersham Pharmacia Biotech).
In principle, the assay relies upon the well established SPA technology for the detection of poly(ADP-ribosyl)ation of biotinylated target proteins, i.e histones. This ribosylation is induced using nicked DNA activated PARP-1 enzyme and [^3H]-nicotinamide adenine dinucleotide ([^3H]-NAD^+) as ADP-ribosyl donor.
As inducer of PARP-1 enzyme activity, nicked DNA was prepared. For this, 25 mg of DNA (supplier: Sigma) was dissolved in 25 ml DNAse buffer (10 mM Tris-HCl, pH 7.4; 0.5 mg/ml Bovine Serum Albumine (BSA); 5 mM MgCl2.6H2O and 1 mM KCl) to which 50 μl DNAse solution (1 mg/ml in 0.15 M NaCl) was added. After an incubation of 90 min. at 37° C., the reaction was terminated by adding 1.45 g NaCl, followed by a further incubation at 58° C. for 15 min. The reaction mixture was cooled on ice and dialysed at 4° C. for respectively 1.5 and 2 hours against 1.5 l of 0.2 M KCl, and twice against 1.5 l of 0.01 M KCl for 1.5 and 2 h respectively. The mixture was aliquoted and stored at −20° C. Histones (1 mg/ml, type II-A, supplier: Sigma) were biotinylated using the biotinylation kit of Amersham and stored aliquoted at −20° C. A stock solution of 100 mg/ml SPA poly(vinyl toluene) (PVT) beads (supplier: Amersham) was made in PBS. A stock solution of [^3]H-NAD^+ was made by adding 120 μl of [^3H]-NAD^+ (0.1 mCi/ml, supplier: NEN) to 6 ml incubation buffer (50 mM Tris/HCl, pH 8; 0.2 mM DTT; 4 mM MgCl2). A solution of 4 mM NAD^+ (supplier: Roche) was made in incubation buffer (from a 100 mM stock solution in water stored at −20° C.). The PARP-1 enzyme was produced using art known techniques, i.e. cloning and expression of the protein starting from human liver cDNA. Information concerning the used protein sequence of the PARP-1 enzyme including literature references can be found in the Swiss-Prot database under primary accession number P09874. Biotinylated histones and PVT-SPA beads were mixed and pre-incubated for 30 min. at room temperature. PARP-1 enzyme (concentration was lot dependent) was mixed with the nicked DNA and the mixture was pre-incubated for 30 min. at 4° C. Equal parts of this histones/PVT-SPA beads solution and PARP-1 enzyme/DNA solution were mixed and 75 μl of this mixture together with 1 μl of compound in DMSO and 25 μl of [^3H]-NAD^+ was added per well into a 96-well microtiterplate. The final concentrations in the incubation mixture were 2 μg/ml for the biotinylated histones, 2 mg/ml for the PVT-SPA beads, 2 μg/ml for the nicked DNA and between 5-10 μg/ml for the PARP-1 enzyme. After incubation of the mixture for 15 min. at room temperature, the reaction was terminated by adding 100 μl of 4 mM NAD^+ in incubation buffer (final concentration 2 mM) and plates were mixed.
The beads were allowed to sediment for at least 15 min. and plates transferred to a TopCountNXT™ (Packard) for scintillation counting, values were expressed as counts per minute (cpm). For each experiment, controls (containing PARP-1 enzyme and DMSO without compound), a blank incubation (containing DMSO but no PARP-1 enzyme or compound) and samples (containing PARP-1 enzyme and compound dissolved in DMSO) were run in parallel. All compounds tested were dissolved and eventually further diluted in DMSO. In first instance, compounds were tested at a concentration of 10^−5 M or 10^−6M. […] In each test, the blank value was subtracted from both the control and the sample values. The control sample represented maximal PARP-1 enzyme activity. For each sample, the amount of cpm was expressed as a percentage of the mean cpm value of the controls. When appropriate, IC50-values (concentration of the drug, needed to reduce the PARP-1 enzyme activity to 50% of the control) were computed using linear interpolation between the experimental points just above and below the 50% level. […]

T1 sequence (P09874 whole entry): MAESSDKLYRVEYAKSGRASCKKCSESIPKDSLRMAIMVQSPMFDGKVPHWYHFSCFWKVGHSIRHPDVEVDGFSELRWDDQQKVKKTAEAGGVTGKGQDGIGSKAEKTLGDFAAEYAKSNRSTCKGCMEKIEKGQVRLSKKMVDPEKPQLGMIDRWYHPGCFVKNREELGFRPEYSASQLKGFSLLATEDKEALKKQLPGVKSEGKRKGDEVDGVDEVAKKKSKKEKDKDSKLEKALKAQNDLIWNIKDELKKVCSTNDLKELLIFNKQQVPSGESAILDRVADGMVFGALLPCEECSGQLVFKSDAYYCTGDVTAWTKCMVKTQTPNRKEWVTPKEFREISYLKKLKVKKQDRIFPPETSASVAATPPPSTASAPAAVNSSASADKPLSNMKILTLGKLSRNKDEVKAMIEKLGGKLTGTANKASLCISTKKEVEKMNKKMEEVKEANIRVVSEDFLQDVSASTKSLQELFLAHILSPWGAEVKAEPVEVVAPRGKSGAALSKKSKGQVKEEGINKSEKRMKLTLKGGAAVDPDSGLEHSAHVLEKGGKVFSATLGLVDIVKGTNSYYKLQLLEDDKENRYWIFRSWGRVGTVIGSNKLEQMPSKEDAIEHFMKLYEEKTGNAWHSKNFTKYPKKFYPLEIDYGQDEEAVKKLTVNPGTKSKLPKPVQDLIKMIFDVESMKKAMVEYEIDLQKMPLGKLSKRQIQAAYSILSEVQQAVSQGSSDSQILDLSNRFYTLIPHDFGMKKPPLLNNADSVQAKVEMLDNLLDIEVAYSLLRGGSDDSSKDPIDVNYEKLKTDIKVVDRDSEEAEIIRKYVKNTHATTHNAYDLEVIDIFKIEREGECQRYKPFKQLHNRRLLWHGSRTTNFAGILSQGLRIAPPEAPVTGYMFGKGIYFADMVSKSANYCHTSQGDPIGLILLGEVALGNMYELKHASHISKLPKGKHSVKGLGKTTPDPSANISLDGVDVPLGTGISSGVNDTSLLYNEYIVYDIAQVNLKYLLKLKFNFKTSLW

Row | IC50 (PARP-1 enzyme [1]) [µM] | IC50 (PARP-1 enzyme [2]) [µM] | SMILES
1 | 3.56 | 0.665 | Cc1cc2cc(C(c3cccc(Cl)c3)n3ccnc3)ccc2[nH]c1=O (centres unmarked) [Compound 94]
2 | 7.59 | 2.72 | Cc1cc2cc(C(NCCCn3cccc3)c3ccccc3)ccc2[nH]c1=O (centres unmarked) [Compound 24]
3 | 0.828 | 0.187 | CCc1cc2cc(C(CCN(C)C)c3cccc(C(F)(F)F)c3)ccc2[nH]c1=O (centres unmarked) [Compound 91]
4 | 2.25 | 0.573 | CCc1nc2cc(C(c3ccc(Cl)cc3)n3ccnc3)ccc2[nH]c1=O (centres unmarked) [Compound 126]
5 | 3.3 | 0.612 | CCc1nc2cc(C(c3cccc(Cl)c3)n3ccnc3)ccc2[nH]c1=O (centres unmarked) [Compound 123]
6 | 4.43 | 0.611 | Cc1cc2cc(C(O)c3ccc4c(c3)OCO4)ccc2[nH]c1=O (centres unmarked) [Compound 111]
7 | 1.59 | 0.366 | Cc1cc2cc(C(NC=O)c3ccc(F)cc3)ccc2[nH]c1=O (centres unmarked) [Compound 102]
8 | 1.58 | 0.552 | CCc1nc2cc(CC(c3ccc(Cl)cc3)N3CCCCC3)ccc2[nH]c1=O (centres unmarked) [Compound 114]
9 | 2.37 | 0.197 | CCc1cc2cc(C(c3cccc(C(F)(F)F)c3)n3cncn3)ccc2[nH]c1=O (centres unmarked) [Compound 78]
10 | 3.44 | 0.818 | CCc1nc2cc(C(c3cccc(F)c3)n3ccnc3)ccc2[nH]c1=O (centres unmarked) [Compound 115]
11 | 3.83 | 0.274 | Cc1cccc(C(NC=O)c2ccc3[nH]c(=O)c(C)cc3c2)c1 (centres unmarked) [Compound 98]
12 | 2.71 | 0.689 | C#CC(O)(c1ccccc1)c1ccc2[nH]c(=O)c(C)cc2c1 (centres unmarked) [Compound 112]
13 | 3.27 | 1.41 | Cc1cc2cc(C(NCCCc3cccs3)c3ccccc3)ccc2[nH]c1=O (centres unmarked) [Compound 23]
14 | 2.15 | 0.508 | Cc1cc2cc(C(c3ccccc3)N3CCCCC3)ccc2[nH]c1=O (centres unmarked) [Compound 93]
15 | 4.95 | 0.589 | CCc1cc2cc(C(c3cccc(C(F)(F)F)c3)N3CCC(NCCOC)CC3)ccc2[nH]c1=O (centres unmarked) [Compound 87]
16 | 2.33 | 0.925 | Cc1cc2cc(C(NCCC(=O)c3ccccc3)c3ccccc3)ccc2[nH]c1=O (centres unmarked) [Compound 27]
17 | 1.56 | 0.299 | Cc1cc2cc(/C(=C3\CCCN(C)C3)c3ccccc3)ccc2[nH]c1=O [Compound 134]
18 | 3.66 | 1.11 | CCc1nc2cc(C(c3ccccc3)n3ccnc3)ccc2[nH]c1=O (centres unmarked) [Compound 127, 3-ethyl-6-(1H-imidazol-1-ylphenylmethyl)-2(1H)-quinoxalinone]
19 | 10 | 0.841 | COc1cccc(C(O)c2ccc3[nH]c(=O)c(C)cc3c2)c1 (centres unmarked) [Compound 107]

Row | IC50 (PARP-1 enzyme [1]) [µM] | IC50 (PARP-1 enzyme [2]) [µM] | SMILES
20 | 0.352 | 0.0698 | CCc1cc2cc(C(NC=O)c3ccccc3)ccc2[nH]c1=O (centres unmarked) [Compound 96]
21 | 1.19 | 0.189 | Cc1cc2cc(C(C)(C#N)c3ccccc3)ccc2[nH]c1=O (centres unmarked) [Compound 85]
22 | 2.15 | 0.431 | CCc1cc2cc(/C(=C\CN(C)C)c3ccccc3)ccc2[nH]c1=O [Compound 140]
23 | 2.11 | 0.22 | CCc1cc2cc(C(c3ccccc3)N3CCC(NCCOC)CC3)ccc2[nH]c1=O (centres unmarked) [Compound 13]
24 | 7.73 | 0.902 | Cc1cc2cc(CCC(NC=O)c3ccccc3)ccc2[nH]c1=O (centres unmarked) [Compound 103]
25 | 2.58 | 0.277 | CCc1cc2cc(C(O)c3ccccc3)ccc2[nH]c1=O (centres unmarked) [Compound 110]
26 | 0.773 | 0.226 | CCc1cc2cc(C(OCCN(C)C)c3ccccc3)ccc2[nH]c1=O (centres unmarked) [Compound 28]
27 | 2.1 | 0.211 | CCc1cc2cc(C(c3cccc(C(F)(F)F)c3)n3cnnc3)ccc2[nH]c1=O (centres unmarked) [Compound 72]
28 | 5.93 | 0.556 | CCc1nc2cc(CC(=O)c3ccc(Cl)cc3)ccc2[nH]c1=O [Compound 113]
29 | 2.32 | 0.755 | CCOC(=O)c1ccc(C(O)c2ccc3[nH]c(=O)c(C)cc3c2)cc1 (centres unmarked) [Compound 109]
30 | 4.12 | 0.668 | CCc1cc2cc(/C(=C/CN(C)C)c3ccccc3)ccc2[nH]c1=O [Compound 139]
31 | 1.18 | 0.105 | CCc1cc2cc(C(CCN(C)C)c3ccccc3)ccc2[nH]c1=O (centres unmarked) [Compound 92]
32 | 2.84 | 0.773 | COc1cccc(C(NC=O)c2ccc3[nH]c(=O)c(C)cc3c2)c1 (centres unmarked) [Compound 101]
33 | 1.8 | 0.362 | CCc1nc2cc(C(c3ccccc3)n3cncn3)ccc2[nH]c1=O (centres unmarked) [Compound 30]
34 | 2.24 | 0.292 | CCc1cc2cc(C(c3ccc(Cl)cc3)N3CCC(NCCOC)CC3)ccc2[nH]c1=O (centres unmarked) [Compound 86]
35 | 5.61 | 0.711 | CCc1nc2cc(C(c3ccc(F)cc3)n3ccnc3)ccc2[nH]c1=O (centres unmarked) [Compound 125]
36 | 4.78 | 0.796 | Cc1cc2cc(C(NCCO)c3ccccc3)ccc2[nH]c1=O (centres unmarked) [Compound 29]
37 | 1.47 | 0.289 | Cc1cc2cc(C(NC=O)c3ccc4c(c3)OCO4)ccc2[nH]c1=O (centres unmarked) [Compound 99]
